Measured values taken from ChEMBL document CHEMBL4130414, “Asymmetric synthesis of novel triazole derivatives and their in vitro antiviral activity and mechanism of action” (Eur J Med Chem, 2017).
≈ marks a conversion by molar mass, not a printed value. Calls of active or inactive are those of the source. The rule behind the calls is not given here.

Legend:
[1] = Cytotoxicity against human RD cells assessed as reduction in cell viability after 3 days by MTT assay; assay type: cell-based
[2] = Cytotoxicity against human Hep2 cells assessed as reduction in cell viability after 3 days by MTT assay; assay type: cell-based; settings: HEp-2 cells
[3] = tested on: Enterovirus A71; test: Antiviral activity against EV71 Xiangyang-Hubei-09 infected in human RD cells assessed as inhibition of virus-induced cytopathic effect by MTT dye based assay; assay type: functional, organism-based
[4] = Selectivity index, ratio of CC50 for human RD cells to EC50 for EV71 Xiangyang-Hubei-09 infected in human RD cells; assay type: toxicity, cell-based; settings: read-out: Ratio CC50/EC50
[5] = tested on: Coxsackievirus B3; test: Antiviral activity against Coxsackievirus B3 (strain Nancy) infected in human HEP2 cells assessed as inhibition of virus-induced cytopathic effect by MTT dye based assay; assay type: functional, organism-based
[6] = Selectivity index, ratio of CC50 for human HEP2 cells to EC50 for Coxsackievirus B3 (strain Nancy) infected in human HEP cells; assay type: toxicity, cell-based; settings: HEp-2 cells, read-out: Ratio CC50/EC50
[7] = tested on: Enterovirus A71; test: Antiviral activity against EV71 Xiangyang-Hubei-09 infected in human RD cells assessed as inhibition of virus-induced cytopathic effect at 16 ug/ml treated 1 hr post viral infection measured after 48 hrs by MTT dye based assay relative to control; assay type: functional; settings: for inhibition at 16 µg/mL: Enterovirus A, Xiangyang-Hubei-09, RD
[8] = tested on: Coxsackievirus B3; test: Antiviral activity against Coxsackievirus B3 (strain Nancy) infected in human HEP2 cells assessed as inhibition of virus-induced cytopathic effect at 16 ug/ml after 48 hrs by MTT dye based assay; assay type: functional, organism-based
[9] = tested on: Enterovirus A71; test: Antiviral activity against EV71 Xiangyang-Hubei-09 infected in human RD cells assessed as alteration in viral cell morphology at 16 ug/ml after 48 hrs; assay type: functional, organism-based
[10] = tested on: Enterovirus A71; test: Antiviral activity against EV71 Xiangyang-Hubei-09 infected in human RD cells assessed as reduction in progeny viral yield at 16 ug/ml treated 1 hr post viral infection measured after 48 hrs; assay type: functional
[11] = tested on: Enterovirus A71; test: Antiviral activity against EV71 Xiangyang-Hubei-09 infected in human RD cells assessed as inhibition of viral adsorption at 16 ug/ml treated simultaneously with viral infection for 2 hrs followed by washing with PBS measured after 48 hrs; assay type: functional, organism-based
[12] = tested on: Enterovirus A71; test: Antiviral activity against EV71 Xiangyang-Hubei-09 infected in human RD cells at 16 ug/ml preincubated with RD cells for 2 hrs followed by washing with PBS and subsequent viral infection measured after 48 hrs; assay type: functional, organism-based
[13] = tested on: Enterovirus A71; test: Antiviral activity against EV71 Xiangyang-Hubei-09 infected in human RD cells assessed as inhibition of virus-induced cytopathic effect at 16 ug/ml preincubated with RD cells for 2 hrs followed by washing with PBS and subsequent viral infection measured after 48 hrs by MTT assay; assay type: functional, organism-based
[14] = Enterovirus A, Xiangyang-Hubei-09, RD, read-out: EC50
[15] = Enterovirus B, Nancy, HEp-2, read-out: EC50

| SMILES | CC50 at 72 h [1] [µg/mL] | CC50 at 72 h [2] [µg/mL] | EC50 [3, 14] [µg/mL] | selectivity ratio [4] | EC50 [5, 15] [µg/mL] | selectivity ratio [6] | also measured |
| --- | --- | --- | --- | --- | --- | --- | --- |
| Clc1ccc([C@H](CCn2cncn2)Cc2ccccc2)c(Cl)c1 | 1.9 (≈ 5.49 µM) | 4.9 (≈ 14.2 µM) |  |  |  |  |  |
| CC[C@H](CCn1cncn1)c1ccc(C)cc1 | 85.2 (≈ 372 µM) | 75.2 (≈ 328 µM) | 6.6 (≈ 28.8 µM) | 12.9 | 12.1 (≈ 52.8 µM) | 6.2 |  |
| CC[C@@H](CCn1cncn1)c1ccc(Cl)cc1 | 55.3 (≈ 221 µM) | 55.1 (≈ 221 µM) | 5.4 (≈ 21.6 µM) | 10.2 | 10.5 (≈ 42 µM) | 5.2 |  |
| C[C@H](CCn1cncn1)Cc1ccccc1 | 153 (≈ 710 µM) | 144 (≈ 670 µM) | 6.2 (≈ 28.8 µM) | 24.7 | 11.4 (≈ 52.9 µM) | 12.6 | inhibition [3]: Dose-dependent effect; inhibition [5]: Dose-dependent effect; inhibition at 16 µg/mL [7]: 72%; inhibition [8]: Active; inhibition [9]: Active; log(activity) [10]: 4.7; inhibition [11]: Active; inhibition [12]: inactive; inhibition [13]: inactive |
| CCC[C@H](CCn1cncn1)c1ccc(C)cc1 | 47.2 (≈ 194 µM) | 45.7 (≈ 188 µM) |  |  |  |  |  |
| CCC[C@@H](CCn1cncn1)c1ccc(Cl)cc1 | 40.8 (≈ 155 µM) | 36.6 (≈ 139 µM) |  |  |  |  |  |
| Clc1ccc([C@@H](CCn2cncn2)Cc2ccccc2)c(Cl)c1 | 6.5 (≈ 18.8 µM) | 11.1 (≈ 32.1 µM) |  |  |  |  |  |
| CC[C@H](CCn1cncn1)c1ccc(F)cc1 | 110 (≈ 473 µM) | 103 (≈ 442 µM) |  |  |  |  | EC50 ([3]; rd): Not Active; EC50 [5]: Not Active |
| CCCC[C@H](CCn1cncn1)c1ccc(F)cc1 | 35.2 (≈ 135 µM) | 38.5 (≈ 147 µM) |  |  |  |  |  |
| CCCC[C@@H](CCn1cncn1)c1ccc(Cl)cc1Cl | 1.9 (≈ 6.08 µM) | 6.5 (≈ 20.8 µM) |  |  |  |  |  |
| CCCC[C@H](CCn1cncn1)c1ccc(C)cc1 | 26.5 (≈ 103 µM) | 23.7 (≈ 92.1 µM) |  |  |  |  |  |
| CCCC[C@H](CCn1cncn1)c1ccc(OC)cc1 | 28.3 (≈ 104 µM) | 34.5 (≈ 126 µM) |  |  |  |  |  |
| CCCC[C@@H](CCn1cncn1)c1ccccc1 | 47.5 (≈ 195 µM) | 40.8 (≈ 168 µM) |  |  |  |  | EC50 ([3]; rd): Not Active; EC50 [5]: Not Active |
| c1ccc(C[C@@H](CCn2cncn2)c2ccccc2)cc1 | 56 (≈ 202 µM) | 55.9 (≈ 202 µM) |  |  |  |  |  |
| CCCC[C@H](CCn1cncn1)c1ccc(Cl)cc1 | 20.3 (≈ 73.1 µM) | 20.2 (≈ 72.7 µM) |  |  |  |  |  |
| Clc1ccc([C@H](CCn2cncn2)Cc2ccccc2)cc1 | 21.7 (≈ 69.6 µM) | 25.7 (≈ 82.4 µM) |  |  |  |  |  |
| C[C@@H](CCn1cncn1)Cc1ccccc1 | 114 (≈ 530 µM) | 131 (≈ 609 µM) | 9.1 (≈ 42.3 µM) | 12.6 | 10.3 (≈ 47.8 µM) | 12.7 | inhibition [3]: Dose-dependent effect; inhibition [5]: Dose-dependent effect; inhibition [7]: Active; inhibition [8]: Active; inhibition [9]: Active |
| NC(=O)c1ncn([C@@H]2O[C@H](CO)[C@@H](O)[C@H]2O)n1 [RIBAVIRIN] | 486 (≈ 1990 µM) | 572 (≈ 2340 µM) | 32.5 (≈ 133 µM) | 15 | 42.9 (≈ 176 µM) | 13.3 | inhibition [7]: Active; inhibition [8]: Active |
| Cc1ccc(C(CCn2cncn2)C2CCCCC2)cc1 (single isomer, unassigned) | 57.9 (≈ 204 µM) | 57.3 (≈ 202 µM) | 10.6 (≈ 37.4 µM) | 5.5 | 11.7 (≈ 41.3 µM) | 4.9 |  |
| COc1ccc([C@H](CCn2cncn2)Cc2ccccc2)cc1 | 66 (≈ 215 µM) | 60.3 (≈ 196 µM) | 12.2 (≈ 39.7 µM) | 5.4 | 12.2 (≈ 39.7 µM) | 4.9 |  |
| CCC[C@@H](CCn1cncn1)c1ccc(C)cc1 | 74.1 (≈ 304 µM) | 71.3 (≈ 293 µM) | 10.9 (≈ 44.8 µM) | 6.8 | 10.3 (≈ 42.3 µM) | 6.9 |  |
| CC[C@H](CCn1cncn1)c1ccc(Cl)cc1 | 57 (≈ 228 µM) | 50.6 (≈ 203 µM) |  |  | 13.5 (≈ 54.1 µM) | 3.7 | EC50 ([3]; rd): Not Active |
| CCC[C@@H](CCn1cncn1)c1ccc(F)cc1 | 56.9 (≈ 230 µM) | 55.3 (≈ 224 µM) |  |  |  |  |  |

| SMILES | CC50 at 72 h [1] [µg/mL] | CC50 at 72 h [2] [µg/mL] | EC50 [3, 14] [µg/mL] | selectivity ratio [4] | EC50 [5, 15] [µg/mL] | selectivity ratio [6] | also measured |
| --- | --- | --- | --- | --- | --- | --- | --- |
| Clc1ccc([C@@H](CCn2cncn2)Cc2ccccc2)cc1 | 24.4 (≈ 78.3 µM) | 25.9 (≈ 83.1 µM) |  |  |  |  |  |
| CCCC[C@H](CCn1cncn1)c1ccccc1 | 48.3 (≈ 198 µM) | 50.2 (≈ 206 µM) | 12.1 (≈ 49.7 µM) | 4 | 10.4 (≈ 42.7 µM) | 4.8 |  |
| Cc1ccc([C@@H](CCn2cncn2)Cc2ccccc2)cc1 | 109 (≈ 373 µM) | 83.3 (≈ 286 µM) |  |  |  |  |  |
| CC[C@@H](CCn1cncn1)c1ccccc1 | 91.2 (≈ 424 µM) | 89.9 (≈ 418 µM) |  |  |  |  |  |
| c1ccc(C(CCn2cncn2)C2CCCCC2)cc1 (single isomer, unassigned; 40) | 9.2 (≈ 34.2 µM) | 21.8 (≈ 80.9 µM) |  |  | 4.7 (≈ 17.4 µM) | 4.6 | EC50 ([3]; rd): Not Active |
| c1ccc(C[C@H](CCn2cncn2)c2ccccc2)cc1 | 55.4 (≈ 200 µM) | 60.9 (≈ 220 µM) | 12.7 (≈ 45.8 µM) | 4.4 | 14.9 (≈ 53.7 µM) | 4.1 |  |
| CCCC[C@@H](CCn1cncn1)c1ccc(F)cc1 | 34.1 (≈ 130 µM) | 36 (≈ 138 µM) |  |  |  |  |  |
| CCC[C@H](CCn1cncn1)c1ccc(F)cc1 | 38.4 (≈ 155 µM) | 39.3 (≈ 159 µM) |  |  |  |  |  |
| CCCC[C@@H](CCn1cncn1)c1ccc(OC)cc1 | 39.4 (≈ 144 µM) | 31.6 (≈ 116 µM) |  |  |  |  |  |
| CC[C@H](CCn1cncn1)c1ccccc1 | 99.8 (≈ 464 µM) | 97.7 (≈ 454 µM) |  |  |  |  |  |
| Cc1ccc(C[C@H](CCn2cncn2)c2ccccc2)cc1 | 37.8 (≈ 130 µM) | 38.8 (≈ 133 µM) |  |  | 7.4 (≈ 25.4 µM) | 5.2 | EC50 ([3]; rd): Not Active |
| CCCC[C@@H](CCn1cncn1)c1ccc(Cl)cc1 | 18.7 (≈ 67.3 µM) | 17 (≈ 61.2 µM) |  |  |  |  |  |
| CC[C@@H](CCn1cncn1)c1ccc(OC)cc1 | 115 (≈ 469 µM) | 146 (≈ 596 µM) | 5.3 (≈ 21.6 µM) | 21.7 | 10.1 (≈ 41.2 µM) | 14.5 | inhibition [3]: Dose-dependent effect; inhibition [5]: Dose-dependent effect; inhibition at 16 µg/mL [7]: 88.1%; inhibition [8]: Active; inhibition [9]: Active |
| CCC[C@H](CCn1cncn1)c1ccccc1 | 63.1 (≈ 275 µM) | 58.4 (≈ 255 µM) |  |  |  |  |  |
| CC[C@H](CCn1cncn1)c1ccc(OC)cc1 | 118 (≈ 483 µM) | 153 (≈ 625 µM) | 15.9 (≈ 64.8 µM) | 7.4 | 15.1 (≈ 61.6 µM) | 10.2 |  |
| c1ccc(C(CCn2cncn2)C2CCCCC2)cc1 (single isomer, unassigned; 39) | 11.8 (≈ 43.8 µM) | 24.8 (≈ 92.1 µM) |  |  | 5.1 (≈ 18.9 µM) | 4.9 | EC50 ([3]; rd): Not Active |
| CCC[C@H](CCn1cncn1)c1ccc(OC)cc1 | 59.3 (≈ 229 µM) | 59.6 (≈ 230 µM) |  |  |  |  |  |
| Cc1ccc([C@H](CCn2cncn2)Cc2ccccc2)cc1 | 117 (≈ 402 µM) | 152 (≈ 522 µM) | 9.2 (≈ 31.6 µM) | 12.7 | 13.6 (≈ 46.7 µM) | 11.2 |  |
| CC[C@@H](CCn1cncn1)c1ccc(C)cc1 | 79.4 (≈ 346 µM) | 69.9 (≈ 305 µM) | 5.4 (≈ 23.5 µM) | 14.7 | 6 (≈ 26.2 µM) | 11.7 | inhibition [3]: Dose-dependent effect; inhibition [5]: Dose-dependent effect; inhibition at 16 µg/mL [7]: 81%; inhibition [8]: Active; inhibition [9]: Active; log(activity) [10]: 4.7; inhibition [11]: Active; inhibition [12]: inactive; inhibition [13]: inactive |
| CC[C@@H](CCn1cncn1)c1ccc(F)cc1 | 91.6 (≈ 393 µM) | 90.3 (≈ 387 µM) |  |  |  |  | EC50 ([3]; rd): Not Active; EC50 [5]: Not Active |
| CCCC[C@H](CCn1cncn1)c1ccc(Cl)cc1Cl | 10.1 (≈ 32.3 µM) | 13.4 (≈ 42.9 µM) |  |  |  |  |  |
| CCCC[C@@H](CCn1cncn1)c1ccc(C)cc1 | 56.5 (≈ 220 µM) | 60.7 (≈ 236 µM) |  |  |  |  | EC50 ([3]; rd): Not Active; EC50 [5]: Not Active |
